Experimental data from US20260007133A1, “HERBICIDAL COMPOSITION COMPRISING AZINE COMPOUNDS” (BASF SE, priority 2022, published 2026).

Columns and labels:
Type in all cases: in vivo
Echinochloa crus-galli = assay: Greenhouse post-emergence (POST) herbicidal test on ECHCG; details: for % activity: ECHCG POST
Method: (§1) The culture containers used were plastic pots containing loamy sand with approximately 3.0% of humus as substrate. The seeds of the test plants were sown separately for each species.
(§2) For the post-emergence treatment, the test plants were grown to a plant height of from 3 to 15 cm, depending on the plant habit, and only then treated with the active compounds which had been suspended or emulsified in water. To this end, the test plants were either sown directly, and grown in the same containers, or they were first grown separately as seedlings and transplanted into the test containers a few days prior to treatment.
(§3) Depending on the species, the plants were kept at 10-25° C. and 20-35° C., respectively.
(§4) The test period extended over 2 to 4 weeks. During this time, the plants were tended and their response to the individual treatments was evaluated.
(§5) Evaluation was carried out using a scale from 0 to 100. 100 means no emergence of the plants, or complete destruction of at least the above-ground parts, and 0 means no damage or normal course of growth. A good herbicidal activity is given at values of at least 70, and very good herbicidal activity is given at values of at least 85.
(§6) If not stated differently, the respective components A and B, and if appropriate, C were formulated as a 5% by weight strength emulsion concentrate and, with addition of the amount of solvent system, introduced into the spray liquor used for applying the active compound.
(§7) As indicated application was either post emergent (POST) at the respective growth stage (GS) of the weed (BBCH code), or pre-emergent (PRE). […]

Digitaria sanguinalis = assay: Greenhouse post-emergence (POST) herbicidal test on DIGSA
Method: as §1, §2, §3, §4, §5, §6, §7

Commelina benghalensis = assay: Greenhouse pre-emergence (PRE) herbicidal test on COMBE; details: Commelina benghalensis, pre-emergence, COMBE PRE
Method: as §1
(§8) The containers were irrigated gently to promote germination and growth and subsequently covered with transparent plastic hoods until the plants had rooted.
as §3, §4, §5, §7

Geranium pusillum = assay: Greenhouse post-emergence (POST) herbicidal test on GERPU
Method: as §1, §2, §3, §4, §5, §6, §7

Abutilon theophrasti [1] = assay: Greenhouse post-emergence (POST) herbicidal test on ABUTH
Method: as §1, §2, §3, §4, §5, §6, §7

Euphorbia heterophylla [2] = assay: Greenhouse post-emergence (POST) herbicidal test on EPHHL; details: Euphorbia heterophylla, post-emergence, POST, EPHHL
Method: as §1, §2, §3, §4, §5, §6, §7

Euphorbia heterophylla [3] = assay: Greenhouse pre-emergence (PRE) herbicidal test on EPHHL; details: Euphorbia heterophylla, pre-emergence
Method: as §1, §8, §3, §4, §5, §7

Abutilon theophrasti [4] = assay: Greenhouse pre-emergence (PRE) herbicidal test on ABUTH; details: PRE, ABUTH
Method: as §1, §8, §3, §4, §5, §7

Ambrosia artemisiifolia = assay: Greenhouse pre-emergence (PRE) herbicidal test on AMBEL; details: PRE, AMBEL
Method: as §1, §8, §3, §4, §5, §7

Lolium multiflorum = assay: Greenhouse pre-emergence (PRE) herbicidal test on LOLMU; details: Lolium multiflorum, pre-emergence, 480 h, PRE, LOLMU, 20 DAT
Method: as §1, §8, §3, §4, §5, §7

Alopecurus myosuroides = assay: Greenhouse pre-emergence (PRE) herbicidal test on ALOMY; details: PRE; ALOMY; use rate 0.5 gai/ha
Method: as §1, §8, §3, §4, §5, §7

[5] = Digitaria sanguinalis, post-emergence, read-out: % activity

C[C@@H](Oc1ccc(Oc2nc3ccc(Cl)cc3o2)cc1)C(=O)N(C)c1ccccc1F [Metamifop, metamifop]
% activity (Echinochloa crus-galli; use rate 6.25 gai/ha): 50%
% activity (Digitaria sanguinalis; DIGSA POST, use rate 25 gai/ha): 85%

CSc1nnc(C(C)(C)C)c(=O)n1N [Metribuzin, metribuzin]
inhibition at 31.25 g/ha (Commelina benghalensis; use rate 31.25 gai/ha): 10%
inhibition at 62.5 g/ha (Commelina benghalensis; use rate 62.5 gai/ha): 20%
inhibition at 31.25 g/ha (Geranium pusillum; Geranium pusillum, post-emergence, GERPU POST, use rate 31.25 gai/ha): 70%

CCCC(=NOCC(C)Oc1ccc(Cl)cc1)C1=C(O)CC(C2CCCSC2)CC1=O (stereo not drawn) [Profoxydim, profoxydim]
% activity (Echinochloa crus-galli; use rate 6.3 gai/ha): 80%
% activity (Echinochloa crus-galli; use rate 12.5 gai/ha): 85%
% activity (Geranium pusillum; GERPU POST, use rate 6.3 gai/ha): 0%
% activity (Abutilon theophrasti [1]; ABUTH POST, use rate 6.3 gai/ha): 20%
% activity (Digitaria sanguinalis; DIGSA POST, use rate 6.3 gai/ha): 60%

CCOC(=O)COc1ncccc1Oc1cc(-n2c(=O)cc(C(F)(F)F)n(C)c2=O)c(F)cc1Cl [Epyrifenacil, epyrifenacil]
% activity (Echinochloa crus-galli; use rate 1 gai/ha): 45%
% activity (Digitaria sanguinalis; DIGSA POST, use rate 0.5 gai/ha): 20%
% activity (Digitaria sanguinalis; DIGSA POST, use rate 1 gai/ha): 55%

COc1c(Cl)ccc(Cl)c1C(=O)O [Dicamba, dicamba]
inhibition at 31.25 g/ha (Euphorbia heterophylla [2]; use rate 31.25 gai/ha): 10%
inhibition at 62.5 g/ha (Euphorbia heterophylla [2]; use rate 62.5 gai/ha): 35%
inhibition at 31.25 g/ha (Abutilon theophrasti [1]; Abutilon theophrasti, post-emergence, POST, ABUTH, use rate 31.25 gai/ha): 60%
inhibition at 62.5 g/ha (Abutilon theophrasti [1]; Abutilon theophrasti, post-emergence, POST, ABUTH, use rate 62.5 gai/ha): 65%

CS(=O)(=O)c1ccc(C(=O)C2C(=O)CCCC2=O)c([N+](=O)[O-])c1 [Mesotrione, mesotrione]
inhibition at 4 g/ha (Commelina benghalensis; use rate 4 gai/ha): 25%
inhibition at 4 g/ha (Euphorbia heterophylla [3]; EPHHL PRE, use rate 4 gai/ha): 20%
inhibition at 16 g/ha (Euphorbia heterophylla [3]; EPHHL PRE, use rate 16 gai/ha): 45%

CCCN(CCC)C(=O)SCc1ccccc1 [Prosulfocarb, prosulfocarb]
pest or weed control at 600 g/ha (Abutilon theophrasti [4]; Abutilon theophrasti, pre-emergence, 480 h, Prosulfocarb solo 600 gai/ha, 20 DAT): 40%
pest or weed control at 150 g/ha (Euphorbia heterophylla [3]; 480 h, PRE, EPHHL, Prosulfocarb solo 150 gai/ha, 20 DAT): 5%
pest or weed control at 600 g/ha (Euphorbia heterophylla [3]; 480 h, PRE, EPHHL, Prosulfocarb solo 600 gai/ha, 20 DAT): 5%
pest or weed control at 600 g/ha (Ambrosia artemisiifolia; Ambrosia artemisiifolia, pre-emergence, 480 h, Prosulfocarb solo 600 gai/ha, 20 DAT): 10%
pest or weed control at 600 g/ha (Geranium pusillum; Geranium pusillum, post-emergence, 480 h, POST, GERPU, Prosulfocarb solo 600 gai/ha, 20 DAT): 20%
pest or weed control at 150 g/ha (Lolium multiflorum; Prosulfocarb solo 150 gai/ha): 15%
pest or weed control at 600 g/ha (Lolium multiflorum; Prosulfocarb solo 600 gai/ha): 20%
pest or weed control at 600 g/ha (Digitaria sanguinalis; Digitaria sanguinalis, post-emergence, 480 h, POST, DIGSA, Prosulfocarb solo 600 gai/ha, 20 DAT): 5%

CCCCOC(=O)[C@@H](C)Oc1ccc(Oc2ccc(C#N)cc2F)cc1 [Cyhalofop-Butyl, cyhalofop-butyl]
inhibition at 6.25 g/ha (Echinochloa crus-galli; Echinochloa crus-galli, post-emergence, read-out: % activity): 80%
inhibition at 6.25 g/ha (Digitaria sanguinalis; [5]): 35%
inhibition at 25 g/ha (Digitaria sanguinalis; [5]): 70%

C#CCN1C(=O)C(F)(F)Oc2cc(F)c(-n3c(=O)n(C)c(=S)n(C)c3=O)cc21 [Trifludimoxazin, trifludimoxazin]
% activity (Abutilon theophrasti [4]; use rate 0.5 gai/ha): 0%
% activity (Alopecurus myosuroides): 10%
% activity (Ambrosia artemisiifolia; use rate 0.5 gai/ha): 0%
% activity (Abutilon theophrasti [1]; POST, ABUTH, use rate 0.5 gai/ha): 80%
% activity (Digitaria sanguinalis; POST, DIGSA, use rate 1 gai/ha): 30%
